Assay results published in ChEMBL document CHEMBL3885881, “DrugMatrix”.

Species on record: Rattus norvegicus
Assay: DrugMatrix - Regimen: Daily Repeat
Assay type: toxicity, organism-based, Sprague-Dawley
Set-up: regimen Daily Repeat, gender Male, age 6-8 weeks
Settings: in vivo, sc, route subcutaneous, […]; for ABSOLUTE BASOPHIL / ABSOLUTE EOSINOPHIL / ABSOLUTE LYMPHOCYTE / ABSOLUTE MONOCYTE / ABSOLUTE SEGMENTED NEUTROPHIL / BASOPHIL / EOSINOPHIL / ERYTHROCYTE COUNT / HEMATOCRIT / HEMOGLOBIN / LEUKOCYTE COUNT / LYMPHOCYTE / MEAN CORPUSCULAR HEMOGLOBIN / MEAN CORPUSCULAR HEMOGLOBIN CONCENTRATION / MEAN CORPUSCULAR VOLUME / MONOCYTE / NEUTROPHIL / NUCLEATED RED BLOOD CELLS / PLATELET COUNT: tissue Blood; for ALANINE AMINOTRANSFERASE / ALBUMIN / ALKALINE PHOSPHATASE / ASPARTATE AMINOTRANSFERASE / BLOOD UREA NITROGEN / CARBON DIOXIDE / CHLORIDE / CHOLESTEROL / CREATINE PHOSPHOKINASE / CREATININE / GLUCOSE / LACTATE DEHYDROGENASE / LIPASE / PHOSPHORUS / POTASSIUM / SODIUM / TOTAL BILIRUBIN / TOTAL PROTEIN / URIC ACID: tissue Plasma
[1] = 0 mg/kg, 72 h, dose level Control, time 3 day
[2] = 0 mg/kg, 120 h, dose level Control, time 5 day
[3] = 0.8 mg/kg, 72 h, dose level Low, time 3 day

## Oc1c(Cl)cc(Cl)c(Cl)c1Cc1c(O)c(Cl)cc(Cl)c1Cl [HEXACHLOROPHENE]
[1]
  ABSOLUTE BASOPHIL: 0 CELLS/uL
  ABSOLUTE EOSINOPHIL: 92.33 CELLS/uL
  ABSOLUTE LYMPHOCYTE: 12247.5 CELLS/uL
  ABSOLUTE MONOCYTE: 389.67 CELLS/uL
  ABSOLUTE SEGMENTED NEUTROPHIL: 1320.5 CELLS/uL
  BASOPHIL: 0%
  EOSINOPHIL: 0.67%
  ERYTHROCYTE COUNT: 5.45 x10E6/uL
  HEMATOCRIT: 34.85%
  HEMOGLOBIN: 12.97 G/DL
  LEUKOCYTE COUNT: 14.05 x10E3/uL
  LYMPHOCYTE: 87.33%
  MEAN CORPUSCULAR HEMOGLOBIN: 23.78 pg
  MEAN CORPUSCULAR HEMOGLOBIN CONCENTRATION: 37.22 G/DL
  MEAN CORPUSCULAR VOLUME: 63.93 fL
  MONOCYTE: 2.67%
  NEUTROPHIL: 9.33%
  NUCLEATED RED BLOOD CELLS: 0 /100WBC
  PLATELET COUNT: 1174 x10E3/uL
  ALANINE AMINOTRANSFERASE: 48.83 u/L
  ALBUMIN: 4.23 G/DL
  ALKALINE PHOSPHATASE: 351.5 u/L
  ASPARTATE AMINOTRANSFERASE: 90 u/L
  BLOOD UREA NITROGEN: 15.33 mg/dL
  CARBON DIOXIDE: 23 mmol/L
  CHLORIDE: 103.5 MEQ/L
  CHOLESTEROL: 70.5 mg/dL
  CREATINE PHOSPHOKINASE: 651.83 u/L
  CREATININE: 0.22 mg/dL
  GLUCOSE: 180.67 mg/dL
  LACTATE DEHYDROGENASE: 165 u/L
  LIPASE: 9.33 u/L
  PHOSPHORUS: 12.03 mg/dL
  POTASSIUM: 6.17 MEQ/L
  SODIUM: 142.62 MEQ/L
  TOTAL BILIRUBIN: 0.2 mg/dL
  TOTAL PROTEIN: 5.73 G/DL
  URIC ACID: 1.77 mg/dL
[2]
  ABSOLUTE BASOPHIL: 0 CELLS/uL
  ABSOLUTE EOSINOPHIL: 0 CELLS/uL
  ABSOLUTE LYMPHOCYTE: 12736.67 CELLS/uL
  ABSOLUTE MONOCYTE: 253.5 CELLS/uL
  ABSOLUTE SEGMENTED NEUTROPHIL: 1193.17 CELLS/uL
  BASOPHIL: 0%
  EOSINOPHIL: 0%
  ERYTHROCYTE COUNT: 5.72 x10E6/uL
  HEMATOCRIT: 36.05%
  HEMOGLOBIN: 13.62 G/DL
  LEUKOCYTE COUNT: 14.18 x10E3/uL
  LYMPHOCYTE: 89.33%
  MEAN CORPUSCULAR HEMOGLOBIN: 23.83 pg
  MEAN CORPUSCULAR HEMOGLOBIN CONCENTRATION: 37.8 G/DL
  MEAN CORPUSCULAR VOLUME: 63.05 fL
  MONOCYTE: 1.83%
  NEUTROPHIL: 8.83%
  NUCLEATED RED BLOOD CELLS: 0 /100WBC
  PLATELET COUNT: 1322.17 x10E3/uL
  ALANINE AMINOTRANSFERASE: 48.83 u/L
  ALBUMIN: 4.27 G/DL
  ALKALINE PHOSPHATASE: 295.17 u/L
  ASPARTATE AMINOTRANSFERASE: 75.83 u/L
  BLOOD UREA NITROGEN: 15.5 mg/dL
  CARBON DIOXIDE: 30.5 mmol/L
  CHLORIDE: 102.33 MEQ/L
  CHOLESTEROL: 76.17 mg/dL
  CREATINE PHOSPHOKINASE: 205.5 u/L
  CREATININE: 0.2 mg/dL
  GLUCOSE: 149.67 mg/dL
  LACTATE DEHYDROGENASE: 124.5 u/L
  LIPASE: 10 u/L
  PHOSPHORUS: 10.93 mg/dL
  POTASSIUM: 6.59 MEQ/L
  SODIUM: 143.1 MEQ/L
  TOTAL BILIRUBIN: 0.2 mg/dL
  TOTAL PROTEIN: 6.05 G/DL
  URIC ACID: 1.45 mg/dL
[3]
  ABSOLUTE BASOPHIL: 0 CELLS/uL
  ABSOLUTE EOSINOPHIL: 0 CELLS/uL
  ABSOLUTE LYMPHOCYTE: 12277.33 CELLS/uL
  ABSOLUTE MONOCYTE: 275.33 CELLS/uL
  ABSOLUTE SEGMENTED NEUTROPHIL: 1214 CELLS/uL
  BASOPHIL: 0%
  EOSINOPHIL: 0%
  ERYTHROCYTE COUNT: 5.64 x10E6/uL
  HEMATOCRIT: 34.87%
  HEMOGLOBIN: 13.13 G/DL
  LEUKOCYTE COUNT: 13.77 x10E3/uL
  LYMPHOCYTE: 89.33%
  MEAN CORPUSCULAR HEMOGLOBIN: 23.3 pg
  MEAN CORPUSCULAR HEMOGLOBIN CONCENTRATION: 37.67 G/DL
  MEAN CORPUSCULAR VOLUME: 61.83 fL
  MONOCYTE: 2%
  NEUTROPHIL: 8.67%
  NUCLEATED RED BLOOD CELLS: 0 /100WBC
  PLATELET COUNT: 1307.67 x10E3/uL
  ALANINE AMINOTRANSFERASE: 41.67 u/L
  ALBUMIN: 4.47 G/DL
  ALKALINE PHOSPHATASE: 339.67 u/L
  ASPARTATE AMINOTRANSFERASE: 84 u/L
  BLOOD UREA NITROGEN: 18 mg/dL
  CARBON DIOXIDE: 24.67 mmol/L
  CHLORIDE: 102.67 MEQ/L
  CHOLESTEROL: 79.67 mg/dL
  CREATINE PHOSPHOKINASE: 217.33 u/L
  CREATININE: 0.21 mg/dL
  GLUCOSE: 142.33 mg/dL
  LACTATE DEHYDROGENASE: 343.67 u/L
  LIPASE: 10 u/L
  PHOSPHORUS: 13.23 mg/dL
  POTASSIUM: 6.86 MEQ/L
  SODIUM: 144.73 MEQ/L
  TOTAL BILIRUBIN: 0.23 mg/dL
  TOTAL PROTEIN: 6 G/DL
  URIC ACID: 2 mg/dL
